Assays:
[1] = tested on: in vitro differentiated Th17 cells; test: IL-17A production of in vitro differentiated Th17 cells stimulated with PMA plus ionomycin (flow cytometry); type: cell-based, murine; details: 1 or 5 μM for 30 min
Procedure: Supplementary Figure 5. Verteporfin inhibits both Th17 differentiation and IL-17A production from in vitro differentiated Th17 cells. (A) Flow cytometry of IL-17A-producing CD4^+ T cells. Splenic T cells were co-treated with verteporfin (C1) (1 or 5 μM) during Th17 differentiation in vitro (for 3 days). (B) Flow cytometry of IL-17A-producing CD4^+ T cells. Murine in vitro differentiated Th17 cells were stimulated with PMA plus ionomycin and co-treated with verteporfin (C1) (1 or 5 μM) for 30 min. Data shown are representatives of two independent experiments.

[2] = tested on: murine primary T cells; test: Cell death of murine primary T cells (Fixable Viability Stain 780, flow cytometry); type: cell-based; details: 1 or 5 μM for 3 d, anti-CD3/CD28 stimulated
Procedure: Supplementary Figure 4. […] Murine primary T cells were stimulated with anti-CD3/CD28 and co-treated with verteporfin (C1) (1 or 5 μM) for 3 days. Dead T cells were labeled with Fixable Viability Stain 780 (FVS 780; BD Biosciences) and then determined by flow cytometry. Data shown are representatives of four independent experiments.

[3] = biological target: T1, GLK (MAP4K3) (Homo sapiens, UniProt Q8IVH8); test: In vitro kinase assay, myelin basic protein as substrate (ADP-Glo); type: biochemical; details: recombinant kinase domain
T1 construct: Recombinant proteins of kinase domains of various MAP4Ks were used; purchased Promega
T1 sequence (Q8IVH8 16-273 limits assumed): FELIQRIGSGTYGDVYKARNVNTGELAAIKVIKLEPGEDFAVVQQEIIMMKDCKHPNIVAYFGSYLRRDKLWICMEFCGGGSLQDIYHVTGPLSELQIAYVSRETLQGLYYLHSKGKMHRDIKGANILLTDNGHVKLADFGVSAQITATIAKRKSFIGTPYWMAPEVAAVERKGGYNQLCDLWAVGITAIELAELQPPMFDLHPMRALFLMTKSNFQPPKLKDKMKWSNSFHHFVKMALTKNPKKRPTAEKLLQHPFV
Procedure: GLK kinase activity was determined by measuring the rate of ADP production in the in vitro kinase reaction using ADP-Glo Kinase Assay Kit (Promega). For the kinase reaction, recombinant proteins of the GLK kinase domain (1 μg) were incubated with recombinant proteins of kinase-dead PKC-θ (K409W; 0.15 μg) plus ATP (0.1 mM) or myelin basic protein (MilliporeSigma) plus ATP (0.1 mM) in kinase buffer [40 mM Tris-HCl (pH 7.5), 20 mM MgCl2, 0.1 mg/ml bovine serum albumin, 10 mM DTT, and 0.1 mM Na3VO4] for 30 min at room temperature.

[4] = tested on: human peripheral blood T cells; test: ELISA of cytokines in supernatants of anti-CD3/CD28-stimulated human peripheral blood T cells; type: cell-based; details: for inhibition of IL-17A: 1 μM
Source text: Primary human T cells were freshly isolated and negatively selected from the PBLs of clinical samples using a cocktail of biotin-conjugated anti-CD19, anti-CD14, and anti-CD11b antibodies (BioLegend) on a magnetic cell separation column (Miltenyi Biotec, Bergisch Gladbach, Germany) ([26]). In addition, primary murine T cells were negatively selected from the spleens of mice using magnetically coupled antibodies against CD11b, B220, CD49b, CD235, and TER-119 (Miltenyi Biotec) ([18]).
We further studied whether IL-17A production is abolished by verteporfin in human and murine T cells. We first tested the inhibitory effect of verteporfin in murine T cells stimulated with T-cell receptor (TCR) signaling (anti-CD3 plus anti-CD28 antibodies). […] This reduction is likely due to the inhibition of NF-κB activation ([18]) by the verteporfin treatment. This notion is supported by our published results that TCR-induced TNF-α and IFN-γ levels in T cells are inhibited by IKK-β conditional knockout ([18]). Next, we studied whether verteporfin attenuates IL-17A production using human peripheral blood T cells with stimulation. The levels of T-cell–secreted IL-17A in unstimulated T cells from patients with SLE and RA were enhanced compared with those from healthy controls (Fig. 5B). […] GLK overexpression in T cells selectively induces IL-17A production in Lck-GLK Tg mice ([18]). […] The inhibition of the production of other cytokines by the high-dose but not low-dose verteporfin treatment may be due to a requirement of higher concentration of verteporfin for an efficient inhibition of NF-κB activation.
Figure 5 Verteporfin (C1) blocks IL-17 production of human T cells. A) ELISA of various cytokines in supernatants of murine primary T cells stimulated with anti-CD3 or CD28 and cotreated with C1 (5 or 10 μM) for 3 d. Means ± SD are shown; n = 3/group. B) ELISA of various cytokines in supernatants of human T cells. T cells were stimulated with anti-CD3 or CD28 and cotreated with C1 (1 or 5 μM) for 3 d. HC, healthy control; N.S., not significant. Means ± SD are shown. *P < 0.05, **P < 0.01, ***P < 0.001 (2-tailed Student’s t test).
Supplementary Figure 6. Inhibition of IL-17A overproduction by verteporfin in inflammatory T cells from SLE or RA patients. (A) ELISA of various cytokines in supernatants of T cells from RA patients. T cells were stimulated with anti-CD3/CD28 and co-treated with verteporfin (C1) (1 or 5 μM) for 3 days. Means ± SD are shown. (B) The inhibition (%) of IL-17A by the 1 μM verteporfin (C1) treatment in SLE or RA patients was compared to that of healthy controls (HC). Means ± SEM of are shown. HC, healthy controls; SLE, systemic lupus erythematosus; RA, rheumatoid arthritis.

[5] = biological target: T2, GCK (MAP4K2) (Homo sapiens, UniProt Q12851); test: In vitro kinase assay, myelin basic protein as substrate (ADP-Glo); type: biochemical; details: recombinant kinase domain
T2 construct: Recombinant proteins of kinase domains of various MAP4Ks were used; purchased Promega
T2 sequence (Q12851 16-273 limits assumed): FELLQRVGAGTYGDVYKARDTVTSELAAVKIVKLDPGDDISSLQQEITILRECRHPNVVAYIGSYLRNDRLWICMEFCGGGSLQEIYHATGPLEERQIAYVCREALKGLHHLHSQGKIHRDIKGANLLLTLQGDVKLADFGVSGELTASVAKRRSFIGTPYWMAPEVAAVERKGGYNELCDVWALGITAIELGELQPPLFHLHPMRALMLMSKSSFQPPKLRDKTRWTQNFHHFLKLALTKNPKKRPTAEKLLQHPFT

Substance: verteporfin
- IL-17A production from in vitro differentiated Th17 cells [1]: inhibited
- IL-17A production from in vitro differentiated Th17 cells ([1]; listed as Verteporfin): inhibits
- cell death of murine primary T cells [2]: did not enhance cell death
- cell death of murine primary T cells ([2]; listed as Verteporfin): does not induce cell death
- IC50 [3]: 1.15 nM
- inhibition of IL-17A ([4]; T cells of healthy controls): ~48%
- inhibition of IL-17A ([4]; T cells of patients with SLE or RA): ~75%
- IL-17A production ([4]; T cells from patients with SLE and RA and healthy controls, 1 or 5 μM for 3 d): significantly reduced
- production of IL-17A, IL-6, IL-10, TNF-α, and IFN-γ ([4]; high-dose 5 μM, T cells of healthy controls and patients with SLE): significantly inhibited
- production of IL-6, IL-10, TNF-α, and IFN-γ ([4]; low-dose 1 μM, T cells from patients with SLE or RA): modestly inhibited
- IC50 [5]: 10.3 nM

Source: publication PMC6766655, “AhR–ROR-γt complex is a therapeutic target for MAP4K3/GLK^highIL-17A^high subpopulation of systemic lupus erythematosus” (The FASEB Journal, 2019)
